Molecules are shown by their SMILES.

Data on ten compounds can be found in patent publication US12122802B2, “D-allose crystal and production method thereof” (MATSUTANI CHEMICAL INDUSTRY CO., LTD., priority 2019, dated 2024).

The nature of series [1]: repose angle measured by powder tester PT-E (fluidity of anhydrous D-allose crystals). The series is classed as physicochemical. The settings on record: for Degree of fluidity: drying tests of Table 6, evaluated from repose angle according to Table 4. As to the method: The fluidity of the anhydrous D-allose crystals obtained by drying the hydrous crystals obtained in each of Tests Nos. 1 to 12 with an evaporator (30° C., 20 hPa (abs), about 2 hours) as described above was evaluated by the repose angle measured by a powder tester PT-E (manufactured by Hosokawa Micron Corporation). Specifically, a sample was dropped and deposited on a disk, and the inclination angle was measured from three directions to obtain an average value. From the average value, the degree of fluidity was evaluated according to Table 1 in the Japanese Pharmacopoeia, 17th edition, Reference Information G2 physical property-related “Powder Fluidity” (same as the so-called Carr's fluidity index table, shown as Table 4).
(§1) In order to measure the water content in the crystals obtained by each of the drying methods, drying under reduced pressure under conditions at 70° C. for 18 hours was performed to calculate the water content in the crystals from the weight loss through the drying under reduced pressure. The repose angle was measured by the method described above to determine the degree of fluidity. The yield rate was calculated by the following expression. Yield rate (%)=(D/C)×100 [Expression 4]

Series [2] is described as follows: water content in crystals from weight loss on drying under reduced pressure at 70° C. for 18 hours. The format is physicochemical. The settings on record: hydrous D-allose crystals (purity 99.9%, water content 17.7%) dried under the named drying conditions. As to the method: as §1
For series [3] the following is noted: in vivo; cited from earlier work.
Series [4] relates to active oxygen in cells. The settings on record: cited from earlier work.
For series [5], the system named is cancer cells. The settings on record: cited from earlier work.
Series [6] is described as follows: particle size distribution by laser diffraction (Mastersizer 3000, dry dispersion unit Aero S). The format is physicochemical. The settings on record: average of 5 measurements, dispersion pressure 1.0 bar; listed as 1. From the text:
The melting point (Tm) in the DSC refers to the melting start temperature of the endothermic peak obtained by DSC measurement (temperature at the extrapolated intersection of the base line and the maximum slope line of the endothermic peak), and the melting enthalpy (ΔH) refers to the area of the endothermic peak (ASTM D3418-15, Standard Test Method for Transition Temperatures and Enthalpies of Fusion and Crystallization of Polymers by Differential Scanning calorimetry). Further, in the present invention, the average particle size refers to the volume-based average particle size d[4,3], which is usually measured with a laser diffraction particle size distribution analyzer.
Next, the particle size distribution of the anhydrous D-allose crystals of the present invention was examined. Specifically, the anhydrous D-allose crystals obtained in the previous Test Nos. 1 to 5, 7 to 10 and 12, were subjected to measurement of particle size distribution under the measurement conditions shown in Table 7 using “Mastersizer 3000” and a “dry dispersion unit Aero S” manufactured by Malvern Instruments. More specifically, the measurement was repeated 5 times, and the average value of the 5 times measurements was used. No great variability was seen among the 5 times measurement values. The particle size distribution was expressed on a volume basis, and the volume-based average particle size d[4,3] and standard deviation σ were recorded. Also, the coefficient of variation CV=σ/d[4,3] was calculated in order to relatively evaluate the variation in the particle size distribution.

Series [7] in a line: aspect ratio of crystals from microscopic picture (Digital microscope VHX-5000, 50x). The settings on record: listed as 1. The series is classed as physicochemical. From the text: The “anhydrous D-allose crystals” of the present invention have an extremely large average particle size as described above and are not in a fine needle form, having a characteristic aspect ratio of the crystal. In the present invention, the aspect ratio refers to the ratio of the long diameter to the short diameter of a crystal (short diameter: minimum length of lines passing through the center of gravity of the plane shape of a crystal, long diameter: maximum length of a crystal measured orthogonal to the short diameter). In the present specification, the aspect ratio in a numerical range from A to B (A and B: arbitrary numbers) means that all of the aspect ratios of a specified number (preferably at least 10, for example 10) of crystal particles randomly selected are within the numerical range. Example of random selection of crystal particles includes a method comprising taking a microscopic picture of crystals at 20× to 50× magnification and, from the crystals on the diagonal line drawn from the upper left to the lower right of the microscopic picture taken, selecting 10 crystals with a full body shown in order from the upper left on the diagonal line. Specifically, the aspect ratio is preferably 1.0 to 10.0, more preferably 2.0 to 8.0, still more preferably 2.0 to 7.0. Next, the aspect ratio of the anhydrous D-allose crystals of the present invention was examined. Specifically, a microscopic picture of each of the anhydrous D-allose crystals obtained in the previous Test Nos. 1 to 5, 7 to 10 and 12 were taken using “Digital microscope VHX-5000” manufactured by KEYENCE Corporation (50×magnification). Among the crystals on the diagonal line drawn from the upper left to the lower right of the microscopic picture taken, 10 crystals with a full picture shown were selected in order from the upper left and then the long diameter and the short diameter of each crystal were measured for calculation of the aspect ratio (Long diameter/Short diameter, wherein short diameter refers to minimum length of lines passing through the center of gravity of the plane shape of a crystal, and long diameter refers to maximum length of a crystal measured orthogonal to the short diameter). The minimum value of the aspect ratio was 1.1 and the maximum value was 9.6 (Table 9).

Where [8] appears, read: drying tests of Table 6, crystals after the named drying conditions.

For `O=C[C@H](O)[C@H](O)[C@H](O)[C@H](O)CO` [Convection heat transfer drying at 50° C., Air supply: 4700 ] [D-allose], in series [1] (setting [8]), the “Repose angle (degrees)” value worked out at 42 degrees. The Degree of fluidity result in series [1] is “Passable (41~45)”. Also, the “Water content (%) after drying” value in series [2] was 0.13%.

Regarding `O=C[C@H](O)[C@H](O)[C@H](O)[C@H](O)CO` [D-allose], the “effect on increase in blood pressure” value in series [3] is “effect for suppressing an increase in blood pressure”. Further, in series [4], the “effect on generation of active oxygen in cells” value is listed as “effect for suppressing generation of active oxygen in cells”. The “effect on growth of cancer cells” value in series [5] was “effect for suppressing growth of cancer cells”.

On to `O=C[C@H](O)[C@H](O)[C@H](O)[C@H](O)CO` [Conductive heat transfer drying at 60° C.] [D-allose], for which the “Repose angle (degrees)” value in series [1] (setting [8]) came out at 41.7 degrees. The Degree of fluidity result in series [1] is recorded as “Passable (41~45)”. In series [2], the “Water content (%) after drying” value turned out to be 0.18%.

Turning to `O=C[C@H](O)[C@H](O)[C@H](O)[C@H](O)CO` [Conductive heat transfer drying at 40° C.] [D-allose], the “Repose angle (degrees)” value in series [1] (setting [8]) was 41.3 degrees. The Degree of fluidity entry in series [1] is given as “Passable (41~45)”. The “Water content (%) after drying” value in series [2] is 0.13%.

As for `O=C[C@H](O)[C@H](O)[C@H](O)[C@H](O)CO` [Convection heat transfer drying at 40° C., Air supply: 6000 ] [D-allose], the “Repose angle (degrees)” value in series [1] (setting [8]) came out at 41.7 degrees. Besides, the Degree of fluidity entry in series [1] is on record as “Passable (41~45)”. Besides, the “Water content (%) after drying” value in series [2] is recorded as 0.13%.

In the case of `O=C[C@H](O)[C@H](O)[C@H](O)[C@H](O)CO` [Convection heat transfer drying at 40° C., Air supply: 3900 ] [D-allose], the “Repose angle (degrees)” value in series [1] (setting [8]) is listed as 41.3 degrees. Besides, in series [1], the Degree of fluidity result is given as “Passable (41~45)”. For the same compound, the “Water content (%) after drying” value in series [2] came to 0.14%.

As to `O=C[C@H](O)[C@H](O)[C@H](O)[C@H](O)CO` [Ultra-low humidity drying (20 to 24° C.), D-allose], in series [1] (setting [8]), the “Repose angle (degrees)” value is reported as 45.7 degrees. Further, the Degree of fluidity entry in series [1] is reported as “Passable (41~45)”. In addition, in series [2], the “Water content (%) after drying” value is reported as 0.052%.

Turning to `O=C[C@H](O)[C@H](O)[C@H](O)[C@H](O)CO` [Conductive heat transfer drying at 50° C.] [D-allose], the “Repose angle (degrees)” value in series [1] (setting [8]) worked out at 42 degrees. In series [1], the Degree of fluidity result is reported as “Passable (41~45)”. Besides, the “Water content (%) after drying” value in series [2] is 0.099%.

For `O=C[C@H](O)[C@H](O)[C@H](O)[C@H](O)CO` [Test No. 1, D-allose], the “Repose angle (degrees)” value in series [1] (anhydrous crystals of Test Nos. 1 to 12, hydrous crystals dried with evaporator (30° C., 20 hPa (abs), about 2 hours), average of three directions, listed as 1) is listed as 43.0 degrees. Also, the “d [4, 3] (volume-based average particle size)” value in series [6] is 472 μm. Besides, the “Aspect ratio (Long diameter/Short diameter)” value in series [7] (crystal ① of 10 selected) amounted to 3.5; in series [7] (crystal ② of 10 selected) it was 3.4; in series [7] (crystal ③ of 10 selected), 4.1; in series [7] (crystal ④ of 10 selected) it was 4.4; in series [7] (crystal ⑤ of 10 selected) it was 4.5; in series [7] (crystal ⑥ of 10 selected), 2.2. Further, the “Aspect ratio (Long diameter/Short diameter)” value in series [7] (crystal ⑦ of 10 selected) was 4.3; in series [7] (crystal ⑧ of 10 selected), 3.6; in series [7] (crystal ⑨ of 10 selected), 3.5; in series [7] (crystal ⑩ of 10 selected), 4.1.

As to `O=C[C@H](O)[C@H](O)[C@H](O)[C@H](O)CO` [Conductive heat transfer drying at 70° C.] [D-allose], in series [1] (setting [8]), the “Repose angle (degrees)” value worked out at 44 degrees. The Degree of fluidity result in series [1] is listed as “Passable (41~45)”. Further, the “Water content (%) after drying” value in series [2] came out at 0.105%.
